# Source: the supplement of paper PMC10307832
# Legend:
# Assay in all cases: relative viability (nuclei count vs DMSO), 5 days (fraction); higher = more cells survive
# [1] = system: NCI-H1703
# In short: (§1)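 Dosing by pin tool came one day after lung cancer cell lines were seeded in 1536-well plates, using either one drug or a fixed anchor-drug dose plus five library-drug doses (not always all listed) in √10 steps. After 5 days, nuclei were counted on 4× images. Relative viability is treated-well nuclei count divided by vehicle-well nuclei count, and values are medians of duplicate plates.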
# [2] = system: NCI-H1648
# In short: as §1
# [3] = system: EBC-1
# In short: as §1
# [4] = system: A549
# In short: as §1
# [5] = system: NCI-H1299
# In short: as §1
# [6] = system: IA-LM
# In short: as §1
# [7] = system: Calu-6
# In short: as §1
# [8] = system: CAL-12T
# In short: as §1
structure (smiles),measurement,setting,value
CC(C)Oc1cc(Nc2nc(N[C@@H](C)c3ccc(F)cn3)ncc2Cl)n[nH]1 [AZ23] + O=C(c1cc(Cc2n[nH]c(=O)c3ccccc23)ccc1F)N1CCN(C(=O)C2CC2)CC1 [Olaparib] (partner 8 µM),relative viability,[1]; first compound 0.03162 µM,0.411
same,relative viability,[1]; first compound 0.3162 µM,0.397
same,relative viability,[2]; first compound 0.01 µM,0.6
same,relative viability,[2]; first compound 0.03162 µM,1.01
same,relative viability,[2]; first compound 0.3162 µM,0.697
same,relative viability,[3]; first compound 0.01 µM,0.884
same,relative viability,[3]; first compound 0.03162 µM,0.767
same,relative viability,[3]; first compound 0.3162 µM,0.734
same,relative viability,[4]; first compound 0.01 µM,0.201
same,relative viability,[4]; first compound 0.03162 µM,0.54
same,relative viability,[4]; first compound 0.3162 µM,0.327
same,relative viability,[5]; first compound 0.01 µM,1.06
same,relative viability,[5]; first compound 0.03162 µM,0.984
same,relative viability,[5]; first compound 0.3162 µM,1.03
same,relative viability,[6]; first compound 0.01 µM,0.79
same,relative viability,[6]; first compound 0.03162 µM,0.914
same,relative viability,[6]; first compound 0.3162 µM,0.949
same,relative viability,[7]; first compound 0.03162 µM,0.662
same,relative viability,[7]; first compound 0.3162 µM,0.644
same,relative viability,[8]; first compound 0.01 µM,0.752
same,relative viability,[8]; first compound 0.03162 µM,0.747
same,relative viability,[8]; first compound 0.3162 µM,0.745
COc1cc(N2CCC(C(N)=O)CC2)ccc1Nc1nc(N)c(Cl)c(Nc2ccccc2S(=O)(=O)C(C)C)n1 [HG-5-88-01] + CS(=O)(=O)CCNCc1ccc(-c2ccc3ncnc(Nc4ccc(OCc5cccc(F)c5)c(Cl)c4)c3c2)o1 [Lapatinib] (partner 2 µM),relative viability,[1]; first compound 0.04 µM,0.832
same,relative viability,[1]; first compound 0.1265 µM,1.15
same,relative viability,[1]; first compound 0.4 µM,1.22
same,relative viability,[1]; first compound 1.265 µM,1.08
same,relative viability,[1]; first compound 4 µM,0.619
same,relative viability,[3]; first compound 0.04 µM,0.221
same,relative viability,[3]; first compound 0.1265 µM,0.22
same,relative viability,[3]; first compound 0.4 µM,0.209
same,relative viability,[3]; first compound 1.265 µM,0.21
same,relative viability,[3]; first compound 4 µM,0.195
same,relative viability,[4]; first compound 0.04 µM,0.984
same,relative viability,[4]; first compound 0.1265 µM,0.917
same,relative viability,[4]; first compound 0.4 µM,0.845
same,relative viability,[4]; first compound 1.265 µM,0.573
same,relative viability,[4]; first compound 4 µM,0.411
same,relative viability,[5]; first compound 0.04 µM,0.914
same,relative viability,[5]; first compound 0.1265 µM,0.983
same,relative viability,[5]; first compound 0.4 µM,0.87
same,relative viability,[5]; first compound 1.265 µM,1.05
same,relative viability,[5]; first compound 4 µM,0.963
same,relative viability,[6]; first compound 0.04 µM,0.891
same,relative viability,[6]; first compound 0.1265 µM,0.864
same,relative viability,[6]; first compound 0.4 µM,0.721
same,relative viability,[6]; first compound 1.265 µM,0.712
same,relative viability,[6]; first compound 4 µM,0.404
same,relative viability,[7]; first compound 0.04 µM,1.11
same,relative viability,[7]; first compound 0.1265 µM,1.05
same,relative viability,[7]; first compound 0.4 µM,1.19
same,relative viability,[7]; first compound 1.265 µM,1.04
same,relative viability,[7]; first compound 4 µM,0.774
same,relative viability,[8]; first compound 0.04 µM,0.618
same,relative viability,[8]; first compound 0.1265 µM,0.698
same,relative viability,[8]; first compound 0.4 µM,0.641
same,relative viability,[8]; first compound 1.265 µM,0.32
same,relative viability,[8]; first compound 4 µM,0.359
Clc1ccc(Nc2nnc(Cc3ccncc3)c3ccccc23)cc1 [Vatalanib] + Cc1nc(NC(=O)N2CCC[C@H]2C(N)=O)sc1-c1ccnc(C(C)(C)C(F)(F)F)c1 [Alpelisib] (partner 2 µM),relative viability,[1]; first compound 0.04 µM,0.327
same,relative viability,[1]; first compound 0.4 µM,0.395
same,relative viability,[1]; first compound 1.265 µM,0.235
same,relative viability,[1]; first compound 4 µM,0.212
same,relative viability,[3]; first compound 0.04 µM,0.842
same,relative viability,[3]; first compound 0.1265 µM,0.698
same,relative viability,[3]; first compound 0.4 µM,0.82
same,relative viability,[3]; first compound 1.265 µM,0.856
same,relative viability,[3]; first compound 4 µM,0.852
same,relative viability,[4]; first compound 0.04 µM,0.795
same,relative viability,[4]; first compound 0.1265 µM,0.758
same,relative viability,[4]; first compound 0.4 µM,0.922
same,relative viability,[4]; first compound 1.265 µM,0.694
same,relative viability,[4]; first compound 4 µM,0.707
same,relative viability,[5]; first compound 0.04 µM,1.02
same,relative viability,[5]; first compound 0.1265 µM,1.08
same,relative viability,[5]; first compound 0.4 µM,1.05
same,relative viability,[5]; first compound 1.265 µM,1.02
same,relative viability,[5]; first compound 4 µM,1.04
same,relative viability,[6]; first compound 0.04 µM,0.747
same,relative viability,[6]; first compound 0.1265 µM,0.754
same,relative viability,[6]; first compound 0.4 µM,0.715
same,relative viability,[6]; first compound 1.265 µM,0.797
same,relative viability,[6]; first compound 4 µM,0.918
same,relative viability,[7]; first compound 0.04 µM,1.09
same,relative viability,[7]; first compound 0.1265 µM,0.95
same,relative viability,[7]; first compound 0.4 µM,1.08
same,relative viability,[7]; first compound 1.265 µM,0.958
same,relative viability,[7]; first compound 4 µM,0.938
same,relative viability,[8]; first compound 0.04 µM,1.05
same,relative viability,[8]; first compound 0.1265 µM,1.26
same,relative viability,[8]; first compound 0.4 µM,1.44
same,relative viability,[8]; first compound 1.265 µM,0.987
same,relative viability,[8]; first compound 4 µM,1.22
